Data: patent US8669246B2, “Substituted amide compound” (Astellas Pharma Inc., priority 2009, dated 2014)

Tests used:
[1] = Estimation of concentration in plasma after oral administration in rats using ex vivo bioassay method; settings: male, Wistar, rat, 2 hours after oral administration, estimated by ex vivo bioassay from standard curve
Description: Estimation of Concentration in Plasma (2 Hours after Oral Administration) after Administration of Compound of Formula (I) in Rats Using Ex Vivo Bioassay Method
The concentration in the plasma after administration of the compound of the formula (I) in rats was estimated according to a bioassay method. That is, test compounds were orally administered to male Wistar rats (Charles River, 6-week old, and fasted), and after a certain period of time, blood was collected from the ophthalmic basilar plexus to give plasma. The compound was extracted from the plasma, and the extracted compound was dissolved in a certain amount of DMSO. Further, for the standard curve, the plasma in which the compounds at various concentrations had been dissolved was prepared separately, and the same extraction procedure was conducted.
The inhibitory action on the LPA-stimulated increase in the intracellular calcium ion concentration in LPA1-expressing cells in the DMSO extract was measured, and the plasma concentration in the individual after administration was estimated from the standard curve.

[2] = system: LPA-induced increase in urethral pressure; test: Inhibitory action on LPA-induced increase in urethral pressure in rats under anesthesia; type: in vivo, rat (male Wistar); settings: Rattus norvegicus, 5 min; 0.1 mg/kg intravenous, LPA (1-oleoyl) 3 mg/kg iv after 5 minutes, anesthetized rats, vs solvent; read-out: Inhibitory rate
Description: Inhibitory Action of Compound of Formula (I) on LPA-Induced Increase in Urethral Pressure in Rats Under Anesthesia (with Intravenous Administration at 0.1 mg/kg) Male Wistar rats (Charles River, 9- to 12-week old) were anesthetized with urethane (1.2 g/kg ip), and held in the supine position on an operating table kept at 37° C. The lower abdominal portion was midline-incised and the bladder was thus exposed. A small portion of the bladder apex was incised, a microchip pressure transducer (Millar) was inserted antegrade, and then placed in the urethra, and the urethral pressure was recorded continuously. In addition, a cannula for administration of a drug was placed into the femoral vein. After about 1 hour of stabilization, the compound of formula (I) (0.1 mg/kg) was administered intravenously. After 5 minutes, LPA (1-oleoyl) was administered intravenously at 3 mg/kg, and the changes in the urethral pressure were recorded. The inhibitory rates (%) of the compound of the formula (I) on the LPA-stimulated increase in the urethral pressure compared with those after administration of the solvent of the compound of the formula (I) were recorded.

human LPA1 = molecular target: T1, human LPA1 (Homo sapiens, UniProt Q92633); test: Antagonistic action on human LPA1: inhibition of LPA-stimulated increase in intracellular calcium ion concentration in human LPA1-CHO cells; type: cell-based; settings: LPA 100 nM, Fluo-4/FLIPR calcium signal
T1 construct: expressed in transfected cells
T1 sequence (Q92633 whole entry): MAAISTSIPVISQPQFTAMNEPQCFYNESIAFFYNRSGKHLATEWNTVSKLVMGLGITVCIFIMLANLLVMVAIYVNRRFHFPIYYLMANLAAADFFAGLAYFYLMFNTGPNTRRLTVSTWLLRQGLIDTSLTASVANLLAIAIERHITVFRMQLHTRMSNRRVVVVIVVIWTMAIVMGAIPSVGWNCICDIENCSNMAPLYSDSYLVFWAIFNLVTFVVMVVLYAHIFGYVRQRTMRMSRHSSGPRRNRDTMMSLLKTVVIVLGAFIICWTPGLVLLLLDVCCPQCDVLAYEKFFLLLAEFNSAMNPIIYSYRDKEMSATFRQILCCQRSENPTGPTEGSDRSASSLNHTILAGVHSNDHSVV
Description: Antagonistic Action of Compound of Formula (I) on Human LPA1
The antagonistic action on a human LPA 1 was evaluated with an index of an inhibitory action on the LPA-stimulated increase in intracellular calcium ion concentration, using human LPA 1-CHO cells [cells in which human LPA1 receptors are stably expressed in CHO (dhfr gene-deficient) cell lines].
Establishment of human LPA1-CHO cells was performed based on the basic genetic engineering techniques.
The established cells were maintained by passage in a nucleic acid-free α-MEM medium (Invitrogen) containing 10% FBS, 1% penicillin/streptomycin (Invitrogen), and 100 nM methotrexate, and before experiment, the medium was replaced with a medium that had been reduced to 1% of the […] concentration, then seeded in 96-well plates to 1.5×10e^5 cells/100 μL/well, and incubated overnight.
On the day of experiment, a 0.5 μM Fluo-4 solution [a solution prepared by adding 20 mM HEPES (Sigma), […] probenecid (Nacalai Tesque), 0.05% BSA, 0.5 μM Fluo-4 AM (Dojindo Laboratories), and 0.1% Pluronic […] (Molecular Probe Co.) to a Hanks Balanced Solt Solution (Invitrogen)] was added to the cells, and Fluo-4 was loaded on the cells by incubating for 2 hours at room temperature.
After loading Fluo-4, the Fluo-4 solution was replaced with a reaction solution [a solution obtained by adding 20 mM HEPES, […] probenecid, and 0.05% BSA to a Hanks Balanced Solt Solution], and then measurement was performed using a device for measuring an intracellular calcium concentration (FLIPR tetra, Molecular Devices Inc.).
A reaction solution in which the compound of the formula (I) (with a final concentration of 0.1 nM to 10 μM) had been dissolved was added to each of the wells, the signals were measured over time for 4 minutes, then a reaction solution in which LPA (final concentration 100 nM) had been dissolved was added thereto, and the signals were measured over time for 2 minutes. The difference between the maximum and minimum response during one minute from addition of LPA was calculated. The inhibitory activity was calculated, with a response when LPA only (not including the compound) was added was taken as 0% inhibition, and a response when a reaction solution not including both of the compound and LPA was added was taken as 100% inhibition. Then the 50% inhibitory concentration was calculated as an IC50 value (nM).
Human LPA1-CHO cells used in the present test were the cells with the same sequence as described in the pamphlet of International Publication WO 99/19513 were used. Further, Ex represents Example No. as denoted below.

Row | Compound | concentration at 2 h [1] [nM] | inhibition in vivo at 0.1 mg/kg [2] [%] | IC50 (human LPA1) [nM] | melting point [°C]
1 | COc1cc(C(=O)N(CCCc2ccccc2)Cc2nc(C(=O)N(C)S(N)(=O)=O)cs2)cc(OC)c1C [Example 9, N-(aminosulfonyl)-2-{[(3,5-dimethoxy-4-methylbenzoyl)(3-phenylpropyl)amino]methyl}-N-methyl-1,3-thiazole-4-carboxamide] | 8300 | 28 |  | 
2 | COc1cc(C(=O)N(CCCc2ccccc2)Cc2nc(C(=O)NS(=O)(=O)N(CCO)CCF)cs2)cc(OC)c1C [Example 22, 2-{[(3,5-dimethoxy-4-methylbenzoyl)(3-phenylpropyl)amino]methyl}-N-{[(2-fluoroethyl)(2-hydroxyethyl)amino]sulfonyl}-1,3-thiazole-4-carboxamide] | 1300 |  | 24 | 
3 | COc1ccc(C(O)C(=O)N(CCCc2ccccc2)Cc2nc(C(=O)NS(=O)(=O)N(C)C)c(C)s2)c(F)c1 (centres unmarked) [Example 27] | 6500 |  | 14 | 
4 | COc1ccc(C2(C(=O)N(CCCc3ccccc3)Cc3nc(C(=O)NS(=O)(=O)N(C)C)c(C)s3)CC2)cc1 [Example 56] | 1800 |  | 29 | 
5 | CCNS(=O)(=O)NC(=O)c1csc(CN(CCCc2ccccc2)C(=O)c2cc(OC)c(C)c(OC)c2)n1 [Example 71] | 2100 | 18 | 16 | 143 to 144
6 | COC(=O)N(C)S(=O)(=O)NC(=O)c1csc(CN(CCCc2ccccc2)C(=O)c2cc(OC)c(C)c(OC)c2)n1 [Example 89] | 2400 |  | 17 | 135 to 137
7 | COc1cc(C(=O)N(CCCc2ccccc2)Cc2nc(C(=O)NS(=O)(=O)N(C)CCF)c(C)s2)cc(OC)c1C [Example 100] | 6700 |  |  | 
8 | COc1ccc(CC(=O)N(CCCc2ccccc2)Cc2nc(C(=O)NS(=O)(=O)N(C)C)c(C)s2)c(OC)c1 [Example 126] | 8900 |  | 20 | 132 to 135
9 | CONS(=O)(=O)NC(=O)c1nc(CN(CCCc2ccccc2)C(=O)c2cc(OC)cc(OC)c2)sc1C [Example 134] | 1400 |  | 25 | 
10 | COc1cc(OC)cc(C(=O)N(CCCc2ccccc2)Cc2nc(C(=O)NS(C)(=O)=O)c(Cl)s2)c1 [Example 145] | 5600 | 16 | 23 | 113 to 114
11 | CCc1c(OC)cc(C(=O)N(CCCc2ccccc2)Cc2nc(C(=O)NS(=O)(=O)NC)c(C)s2)cc1OC [Example 153] | 5200 | 21 | 21 | 162 to 164
12 | CNS(=O)(=O)NC(=O)c1nc(CN(CCCc2ccccc2)C(=O)c2cc(OC)c(C3CC3)c(OC)c2)sc1C [Example 156] | 2100 |  | 15 | 
13 | CCN(CCO)S(=O)(=O)NC(=O)c1csc(CN(CCCc2ccccc2)C(=O)c2cc(OC)c(C)c(OC)c2)n1 [Example 170] | 1800 |  | 34 | 127 to 129
14 | COc1cc(C(=O)N(CCCc2ccccc2)Cc2nc(C(=O)NS(=O)(=O)N(CCO)CCO)c(C)s2)cc(OC)c1C [Example 171] | 2200 |  |  | 
15 | COc1ccc(C(O)C(=O)N(CCCc2ccccc2)Cc2nc(C(=O)NS(N)(=O)=O)c(C)s2)cc1 (centres unmarked) [Example 176] | 4500 |  | 24 | 120 to 121
